Results: article PMC3865801 (Journal of Medicinal Chemistry, 2013)
“Also recorded” adds a separate entry of the source.

Biological target: T1, purified recombinant perforin (Mus musculus, UniProt P10820)
T1 sequence (P10820 21-554): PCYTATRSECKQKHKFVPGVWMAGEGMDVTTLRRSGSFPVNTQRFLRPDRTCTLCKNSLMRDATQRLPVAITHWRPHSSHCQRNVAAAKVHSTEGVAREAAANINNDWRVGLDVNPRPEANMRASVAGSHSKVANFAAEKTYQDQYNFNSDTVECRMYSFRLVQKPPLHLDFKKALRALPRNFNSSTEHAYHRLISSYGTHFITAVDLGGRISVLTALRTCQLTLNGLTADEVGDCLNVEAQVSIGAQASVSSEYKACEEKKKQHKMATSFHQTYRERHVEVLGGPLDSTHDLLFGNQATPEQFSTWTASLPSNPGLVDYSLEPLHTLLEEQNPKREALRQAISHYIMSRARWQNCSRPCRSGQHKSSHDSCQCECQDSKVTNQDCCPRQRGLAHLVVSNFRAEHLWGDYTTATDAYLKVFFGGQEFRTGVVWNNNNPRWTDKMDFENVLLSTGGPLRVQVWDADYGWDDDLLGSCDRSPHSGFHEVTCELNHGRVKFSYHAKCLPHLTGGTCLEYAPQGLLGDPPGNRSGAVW
Test: cell-based
Format: cell-based
Conditions: lysis of Jurkat cells by purified recombinant perforin, 51Cr release, 0.1% BSA, average of at least three determinations; for IC50: read-out: inhibition of Jurkat cell lysis, IC50
Method: The ability of the compounds to inhibit the lysis of nucleated (Jurkat T lymphoma) cells in the presence of 0.1% BSA was measured by release of ^51Cr label. Jurkat target cells were labeled by incubation in medium with 100 μCi ^51Cr for 1 h. The cells were then washed three times to remove unincorporated isotope and resuspended at 1 × 10^5 cells per milliliter in RPMI buffer supplemented with 0.1% BSA. […] Each data point was performed in triplicate, and an IC50 was calculated from the range of concentrations described above.

Structure (SMILES): O=C1NC(=S)N/C1=C/c1ccc(-c2ccccc2)s1 [compound 43]
- inhibition of Jurkat cell lysis, IC50: no detectable activity
- IC50: > 20 µM

Structure (SMILES): O=C1NC(=S)N/C1=C/c1ccc(-c2ccccc2Cl)s1 [compound 44]
- IC50: > 20 µM

Structure (SMILES): O=C1NC(=S)N/C1=C/c1ccc(-c2cccc(Cl)c2)s1 [compound 45]
- IC50: 7.19 µM

Structure (SMILES): O=C1NC(=S)N/C1=C/c1ccc(-c2ccc(Cl)cc2)s1 [compound 46]
- IC50: 5.22 µM

Structure (SMILES): O=C1NC(=S)N/C1=C/c1ccc(-c2cccc(F)c2)s1 [compound 47]
- IC50: 10.8 µM

Structure (SMILES): O=C1NC(=S)N/C1=C/c1ccc(-c2ccc(F)cc2)s1 [compound 48]
- IC50: 6.69 µM

Structure (SMILES): O=C1NC(=S)N/C1=C/c1ccc(-c2ccc(F)c(F)c2)s1 [compound 49]
- IC50: 4.59 µM

Structure (SMILES): O=C1NC(=S)N/C1=C/c1ccc(-c2cccc(C(F)(F)F)c2)s1 [compound 50]
- IC50: 5.66 µM

Structure (SMILES): O=C1NC(=S)N/C1=C/c1ccc(-c2ccc(C(F)(F)F)cc2)s1 [compound 51]
- IC50: 4.66 µM

Structure (SMILES): N#Cc1cccc(-c2ccc(/C=C3/NC(=S)NC3=O)s2)c1 [compound 52]
- IC50: 9.68 µM

Structure (SMILES): O=C1NC(=S)N/C1=C/c1ccc(-c2ccc(O)cc2)s1 [compound 53]
- IC50: 7.72 µM

Structure (SMILES): O=C1NC(=S)N/C1=C/c1ccc(-c2ccc(Cl)c(C(F)(F)F)c2)s1 [compound 54]
- IC50: 3.09 µM

Structure (SMILES): O=C1NC(=S)N/C1=C/c1ccc(-c2ccc(Br)cc2)s1 [compound 55]
- IC50: 1.69 µM

Structure (SMILES): CSc1ccc(-c2ccc(/C=C3/NC(=S)NC3=O)s2)cc1 [compound 56]
- IC50: 1.15 µM

Structure (SMILES): CC(=O)c1ccc(-c2ccc(/C=C3/NC(=S)NC3=O)s2)cc1 [compound 57]
- IC50: 1.67 µM

Structure (SMILES): CC(=O)OCc1ccc(-c2ccc(/C=C3/NC(=S)NC3=O)s2)cc1 [compound 58, (E,Z)-4-(5-((5-Oxo-2-thioxoimidazolidin-4-ylidene)methyl)thiophen-2-yl)benzyl Acetate]
- IC50: 3.04 µM

Structure (SMILES): COC(=O)c1ccc(-c2ccc(/C=C3/NC(=S)NC3=O)s2)cc1 [compound 59]
- IC50: 1.62 µM

Structure (SMILES): NC(=O)c1cccc(-c2ccc(/C=C3/NC(=S)NC3=O)s2)c1 [compound 60]
- IC50: 0.79 µM

Structure (SMILES): NC(=O)c1ccc(-c2ccc(/C=C3/NC(=S)NC3=O)s2)cc1 [compound 61]
- IC50: 1.56 µM

Structure (SMILES): COC(=O)c1ccc(-c2ccc(/C=C3/NC(=S)NC3=O)s2)cc1C [compound 62]
- IC50: 3.03 µM

Structure (SMILES): CS(=O)(=O)c1ccc(-c2ccc(/C=C3/NC(=S)NC3=O)s2)cc1 [compound 63]
- IC50: 13.8 µM

Structure (SMILES): CS(=O)(=O)Nc1ccc(-c2ccc(/C=C3/NC(=S)NC3=O)s2)cc1 [compound 64]
- IC50: 7.7 µM

Structure (SMILES): O=C1NC(=S)N/C1=C/c1ccc(-c2cccnc2)s1 [compound 65]
- IC50: 12.9 µM

Structure (SMILES): O=C1NC(=S)N/C1=C/c1ccc(-c2ccncc2)s1 [compound 66]
- IC50: 10.1 µM

Structure (SMILES): CNC(=O)c1ccc(-c2ccc(/C=C3/NC(=S)NC3=O)s2)cc1 [compound 67, (E,Z)-N-Methyl-4-(5-((5-oxo-2-thioxoimidazolidin-4-ylidene)methyl)thiophen-2-yl)benzamide]
- IC50: 4.53 µM

Structure (SMILES): CN(C)C(=O)c1ccc(-c2ccc(/C=C3/NC(=S)NC3=O)s2)cc1 [compound 68]
- IC50: 6.93 µM

Structure (SMILES): O=C1NC(=S)N/C1=C/c1ccc(-c2ccc(C(=O)N3CCOCC3)cc2)s1 [compound 69]
- IC50: > 20 µM

Structure (SMILES): O=C1NC(=S)N/C1=C/c1ccc(-c2ccc(C(=O)NCCN3CCOCC3)cc2)s1 [compound 70]
- IC50: > 20 µM

Structure (SMILES): O=C1NC(=S)N/C1=C/c1ccc(-c2ccc(C(=O)NCCCN3CCOCC3)cc2)s1 [compound 71]
- IC50: 8.13 µM

Structure (SMILES): O=C1NC(=S)N/C1=C/c1ccc(-c2ccc(C(=O)NCCO)cc2)s1 [compound 72]
- IC50: 3.64 µM

Structure (SMILES): O=C1NC(=S)N/C1=C/c1ccc(-c2ccc(C(=O)NCCCO)cc2)s1 [compound 73]
- IC50: 4.35 µM

Structure (SMILES): CC(O)CNC(=O)c1ccc(-c2ccc(/C=C3/NC(=S)NC3=O)s2)cc1 (centres unmarked) [compound 74]
- IC50: 6.5 µM

Structure (SMILES): O=C1NC(=S)N/C1=C/c1ccc(-c2ccc(C(=O)NCC(O)CO)cc2)s1 (centres unmarked) [compound 75]
- IC50: 2.44 µM

Structure (SMILES): CCN1Cc2cc(-c3ccc(/C=C4/NC(=S)NC4=O)s3)ccc2C1=O [compound 120]
- IC50: 0.6 µM

Structure (SMILES): CCCN1Cc2cc(-c3ccc(/C=C4/NC(=S)NC4=O)s3)ccc2C1=O [compound 121]
- IC50: 1.52 µM

Structure (SMILES): CCCCN1Cc2cc(-c3ccc(/C=C4/NC(=S)NC4=O)s3)ccc2C1=O [compound 122]
- IC50: 1.18 µM

Structure (SMILES): CC(C)N1Cc2cc(-c3ccc(/C=C4/NC(=S)NC4=O)s3)ccc2C1=O [compound 123]
- IC50: 4.42 µM

Structure (SMILES): CC(=O)OCCN1Cc2cc(-c3ccc(/C=C4/NC(=S)NC4=O)s3)ccc2C1=O [compound 124, (E,Z)-2-(1-Oxo-5-(5-((5-oxo-2-thioxoimidazolidin-4-ylidene)methyl)thiophen-2-yl)isoindolin-2-yl)ethyl Acetate]
- IC50: 1.17 µM

Structure (SMILES): O=C1NC(=S)N/C1=C/c1ccc(-c2ccc3c(c2)CN(CC(O)CO)C3=O)s1 (centres unmarked) [compound 127]
- IC50: 1.26 µM

Structure (SMILES): CC(=O)N1Cc2cc(-c3ccc(/C=C4/NC(=S)NC4=O)s3)ccc2C1=O [compound 128]
- IC50: 0.93 µM

Structure (SMILES): O=C1NC(=S)N/C1=C/c1ccc(-c2ccc3c(c2)CN(CCN2CCOCC2)C3=O)s1 [compound 130, (E,Z)-2-(2-Morpholinoethyl)-5-(5-((5-oxo-2-thioxoimidazolidin-4-ylidene)methyl)thiophen-2-yl)isoindolin-1-one]
- inhibition of Jurkat cell lysis, IC50: not reproducible; also recorded: variable

Structure (SMILES): CN(C)CCCN1Cc2cc(-c3ccc(/C=C4/NC(=S)NC4=O)s3)ccc2C1=O [compound 131, (E,Z)-2-(3-(Dimethylamino)propyl)-5-(5-((5-oxo-2-thioxoimidazolidin-4-ylidene)methyl)thiophen-2-yl)isoindolin-1-one]
- IC50: > 20 µM

Structure (SMILES): O=C1NC(=S)N/C1=C/c1ccc(-c2ccc3c(c2)CN(CCCN2CCCCC2)C3=O)s1 [compound 132]
- IC50: 11.8 µM

Structure (SMILES): CN1CCN(CCCN2Cc3cc(-c4ccc(/C=C5/NC(=S)NC5=O)s4)ccc3C2=O)CC1 [compound 133]
- IC50: > 20 µM

Structure (SMILES): O=C1NC(=S)N/C1=C/c1ccc(-c2ccc3c(c2)CN(CCCN2CCCC2)C3=O)s1 [compound 134]
- IC50: 8.93 µM

Structure (SMILES): O=C1NC(=S)N/C1=C/c1ccc(-c2ccc3c(c2)C(=O)NC3)s1 [compound 165]
- IC50: 1.38 µM

Structure (SMILES): CN1Cc2ccc(-c3ccc(/C=C4/NC(=S)NC4=O)s3)cc2C1=O [compound 166, (E,Z)-2-Methyl-6-(5-((5-oxo-2-thioxoimidazolidin-4-ylidene)methyl)thiophen-2-yl)isoindolin-1-one]
- IC50: 1.89 µM

Structure (SMILES): CN1CCc2cc(-c3ccc(/C=C4/NC(=S)NC4=O)s3)ccc2C1=O [compound 169]
- IC50: 2.33 µM

Structure (SMILES): CN1CCc2ccc(-c3ccc(/C=C4/NC(=S)NC4=O)s3)cc2C1=O [compound 170]
- IC50: 4.76 µM

Structure (SMILES): CC(=O)c1cn(C)c2ccc(-c3ccc(/C=C4\NC(=S)NC4=O)s3)cc12 [compound 178]
- IC50: 5.3 µM

Structure (SMILES): O=C1NC(=S)N/C1=C\c1cc(-c2ccc3c(c2)CNC3=O)cs1 [compound 204]
- IC50: 3 µM

Structure (SMILES): O=C1NC(=S)N/C1=C/c1ccc(-c2ccc3c(c2)CNC3=O)cc1 [compound 205]
- IC50: 5.55 µM

Structure (SMILES): O=C1NC(=S)N/C1=C\c1cccc(-c2ccc3c(c2)CNC3=O)c1 [compound 206]
- IC50: 3.44 µM

Structure (SMILES): O=C1NC(=S)N/C1=C/c1cc2ccc(-c3ccc4c(c3)CNC4=O)cc2[nH]1 [compound 208]
- IC50: 1.58 µM

Structure (SMILES): O=C1NC(=S)N/C1=C/c1cc2cc(-c3ccc4c(c3)CNC4=O)ccc2[nH]1 [compound 209]
- IC50: 2.5 µM

Structure (SMILES): O=C1NC(=S)N/C1=C/c1cc2ccc(-c3ccc4c(c3)CCNC4=O)cc2[nH]1 [compound 210]
- IC50: 1.66 µM

Structure (SMILES): O=C1NC(=S)N/C1=C/c1cc2cc(-c3ccc4c(c3)CCNC4=O)ccc2[nH]1 [compound 211]
- IC50: 1.45 µM

Structure (SMILES): O=C1NC(=S)/C(=C/c2ccc3cc(-c4ccc5c(c4)CCNC5=O)ccc3n2)N1 [compound 212]
- IC50: 2.55 µM
